Experimental data reported in patent US10440955B2, “Methods comprising a biocidal polyamine” (Curza Global, LLC, priority 2013, dated 2019).
Structures can show the parent of a compound that is named as a salt. Where two headings read alike, the source gives them in different places.

How the values were obtained:
A. baumannii = assay: MIC, 96-well CAMHB, 10^5 to 10^2 CFU/mL in 24 hours; type: cell-based, Acinetobacter baumannii; details: Acinetobacter baumannii, read-out: MIC (A. bumannii)
Protocol: (§1) To determine the MIC of polyamine compounds, the protocol described herein was used.
(§2) In brief, a 0.5 McFarland of each bacterial isolate was made. A 0.5 McFarland is a measure of turbidity in a liquid sample that contains approximately 1×10^∧8 CFU/mL. The 0.5 McFarland standard was diluted in cation adjusted Mueller Hinton Broth (CAMHB), and 50 μL of broth were added to a well of a 96-well plate. In addition, 50 μL of CAMHB that contained a desired concentration of antimicrobial were also added to the well for a final volume of 100 μL and a final concentration of approximately 5×10^4 CFU/well (which equated to approximately 5×10^5 CFU/mL). Each well contained a desired amount of polyamine compound in order to experimentally determine the MIC. Each 96-well plate was incubated at 37° C. for 24 hours. The contents of each well were plated on tryptic soy agar (TSA). TSA plates were incubated for 37° C. for 24 hours after which the number of CFU were counted and used to calculate the CFU/mL that remained after exposure to varying concentrations of compound. This procedure was repeated n=8 times for each concentration of antimicrobial.
A 0.5 McFarland of A. baumannii is made. A 0.5 McFarland is a measure of turbidity in a liquid sample that contains approximately 7.5×10^7 CFU/mL. The 0.5 McFarland standard is diluted in CAMHB and 50 μL of broth is added to a well of a 96-well plate. In addition, 50 μL of CAMHB that contains a desired concentration of antimicrobial is added to the well for a final volume of 100 μL and a final concentration of approximately 5×10^4 CFU/well (which equates to approximately 5×10^5 CFU/mL). Each well contains a desired amount of CZ compound in order to experimentally determine the MIC. Each 96-well plate is incubated at 37° C. for 24 hours. The contents of each well is plated on tryptic soy agar (TSA). TSA plates is incubated at 37° C. for 24 hours after which the number of CFUs is counted and used to calculate the CFU/mL that remain after exposure to varying concentrations of compound. This procedure is repeated n=8 times for each concentration of antimicrobial. […]

MRSA = assay: as above; type: cell-based, Staphylococcus aureus; details: for MIC: Staphylococcus aureus, MRSA, read-out: MIC (MRSA)
Protocol: as §1
as §2, with “antimicrobial. […]” for “antimicrobial.”

L-929 cells (ATCC CCL-1) = assay: Minimal Essential Media (MEM) Elution cytotoxicity test; type: cell-based
Protocol: Summary: The Minimal Essential Media (MEM) Elution test was designed to determine the cytotoxicity of extractable substances. The test article was added to cell monolayers and incubated. The cell monolayers were examined and scored based on the degree of cellular destruction.
Acceptance Criteria: The United States Pharmacopeia & National Formulary (USP <87>) states that the test article meets the requirements, or receives a passing score (Pass) if the reactivity grade is not greater than grade 2 or a mild reactivity.
Acceptance criteria were based upon the negative and media controls receiving “0” reactivity grades and positive controls receiving a 3-4 reactivity grades (moderate to severe).
The cell monolayers were examined microscopically. The wells were scored as to the degree of discernable morphological cytotoxicity on a relative scale of 0 to 4:
The results from the three wells were averaged to give a final cytotoxicity score.
[…] This initial concentration was then diluted 1: 2, 1:4, 1:8, and 1:16. Multiple well cell culture plates were seeded with a verified quantity of industry standard L-929 cells (ATCC CCL-1) and incubated until approximately 80% confluent. The test articles and control extracts were added to the cell monolayers in triplicate. The cells were incubated at 37±1° C. with 5±1% CO2 for 48±3 hours.

P. aeruginosa = assay: MIC, 96-well CAMHB, 10^5 to 10^2 CFU/mL in 24 hours; type: cell-based, Pseudomonas aeruginosa; details: for MIC: Pseudomonas aeruginosa
Protocol: as §1, §2

[1] = Table 11A, dilution 1:2 of 25 μg/mL
[2] = Table 11A, dilution 1:4 of 25 μg/mL
[3] = Table 11A, dilution 1:8 of 25 μg/mL
[4] = Table 11A, dilution 1:16 of 25 μg/mL
[5] = Table 5, read-out: MIC (P. aeruginosa)

## NCCCNCCCNCCCNCc1cc(CNCCCNCCCNCCCN)cc(-c2ccccc2)c1 [CZ-73, N^1,N^1′-([1,1′-biphenyl]-3,5-diylbis(methylene))bis(N^3-(3-((3-aminopropyl)amino)propyl)propane-1,3-diamine), hydrochloride salt]
A. baumannii
  MIC: 50 to 100 µM

## NCCCNCCCNCc1cc(CNCCCNCCCN)cc(-c2ccc3c(c2)OCO3)c1 [CZ-61, N^1,N^1′-((5-(benzo[d][1,3]dioxol-5-yl)-1,3-phenylene)bis(methylene))bis(N^3-(3-ammoniopropyl)propane-1,3-diaminium) chloride]
A. baumannii
  MIC: < 50 µM

## c1ccc(-c2cc(CNCCCNCCCNCC3CCCCC3)cc(CNCCCNCCCNCC3CCCCC3)c2)cc1 [CZ-96, N^1,N^1′-([1,1′-biphenyl]-3,5-diylbis(methylene))bis(N^3-(3-((cyclohexylmethyl)amino)propyl)propane-1,3-diamine)]
MRSA; Table 5
  MIC: < 50 µM
L-929 cells (ATCC CCL-1); Table 11A, 25 μg/mL
  Results Pass/Fail: Pass (receives a passing score (Pass) if the reactivity grade is not greater than grade 2 or a mild reactivity)
L-929 cells (ATCC CCL-1); [1]
  Results Pass/Fail: Pass (receives a passing score (Pass) if the reactivity grade is not greater than grade 2 or a mild reactivity)
L-929 cells (ATCC CCL-1); [2]
  Results Pass/Fail: Pass (receives a passing score (Pass) if the reactivity grade is not greater than grade 2 or a mild reactivity)
L-929 cells (ATCC CCL-1); [3]
  Results Pass/Fail: Pass (receives a passing score (Pass) if the reactivity grade is not greater than grade 2 or a mild reactivity)
L-929 cells (ATCC CCL-1); [4]
  Results Pass/Fail: Pass (receives a passing score (Pass) if the reactivity grade is not greater than grade 2 or a mild reactivity)
P. aeruginosa; [5]
  MIC: < 50 µM

## NCCCNCCCNCc1cccc(-c2cc(CNCCCNCCCN)cc(CNCCCNCCCN)c2)c1 [CZ-62, N^1,N^1′,N^1″-([1,1′-biphenyl]-3,3′,5-triyltris(methylene))tris(N^3-(3-aminopropyl)propane-1,3-diamine), hydrochloride salt]
A. baumannii
  MIC: < 50 µM
L-929 cells (ATCC CCL-1); Table 10A, 25 μg/mL
  Results Pass/Fail: Fail (a numerical grade greater than 2 is considered a cytotoxic effect, or a failing score (Fail))
L-929 cells (ATCC CCL-1); Table 10A, dilution 1:2 of 25 μg/mL
  Results Pass/Fail: Fail (a numerical grade greater than 2 is considered a cytotoxic effect, or a failing score (Fail))
L-929 cells (ATCC CCL-1); Table 10A, dilution 1:4 of 25 μg/mL
  Results Pass/Fail: Fail (a numerical grade greater than 2 is considered a cytotoxic effect, or a failing score (Fail))
L-929 cells (ATCC CCL-1); Table 10A, dilution 1:8 of 25 μg/mL
  Results Pass/Fail: Pass (receives a passing score (Pass) if the reactivity grade is not greater than grade 2 or a mild reactivity)
L-929 cells (ATCC CCL-1); Table 10A, dilution 1:16 of 25 μg/mL
  Results Pass/Fail: Pass (receives a passing score (Pass) if the reactivity grade is not greater than grade 2 or a mild reactivity)

## CCCCCCCCNCCCNCCCNCc1cc(CNCCCNCCCNCCCCCCCC)cc(-c2ccccc2)c1 [CZ-92, N^1,N^1′-([1,1′-biphenyl]-3,5-diylbis(methylene))bis(N^3-(3-(octylamino)propyl)-propane-1,3-diamine)]
MRSA; Table 5
  MIC: < 50 µM
L-929 cells (ATCC CCL-1); Table 11A, 25 μg/mL
  Results Pass/Fail: Fail (a numerical grade greater than 2 is considered a cytotoxic effect, or a failing score (Fail))
L-929 cells (ATCC CCL-1); [1]
  Results Pass/Fail: Fail (a numerical grade greater than 2 is considered a cytotoxic effect, or a failing score (Fail))
L-929 cells (ATCC CCL-1); [2]
  Results Pass/Fail: Fail (a numerical grade greater than 2 is considered a cytotoxic effect, or a failing score (Fail))
L-929 cells (ATCC CCL-1); [3]
  Results Pass/Fail: Fail (a numerical grade greater than 2 is considered a cytotoxic effect, or a failing score (Fail))
L-929 cells (ATCC CCL-1); [4]
  Results Pass/Fail: Pass (receives a passing score (Pass) if the reactivity grade is not greater than grade 2 or a mild reactivity)
P. aeruginosa; [5]
  MIC: < 50 µM

## Cc1ccccc1-c1cc(CNCCCNCCCN)cc(CNCCCNCCCN)c1 [CZ-63, N^1,N^1′-((2′-methyl-[1,1′-biphenyl]-3,5-diyl)bis(methylene))bis(N^3-(3-aminopropyl)propane-1,3-diamine), hydrochloride salt]
A. baumannii
  MIC: < 50 µM

## N^1,N^1′,N^1″-((4′-(trifluoromethyl)-[1,1′-biphenyl]-3,3′,5-triyl)tris(methylene))tris(N3-(3-aminopropyl)propane-1,3-diamine), hydrochloride salt [CZ-69]
MRSA; Table 5
  MIC (MRSA): +++ (+++ = 50 μM > MIC. MIC results of “>n μM” or “<n μM” will also be designated as +++ if n <50.)
P. aeruginosa; Table 5
  MIC (P. aeruginosa): +++ (+++ = 50 μM > MIC. MIC results of “>n μM” or “<n μM” will also be designated as +++ if n <50.)

## CCCCOc1cc(CNCCCNCCCN)cc(CNCCCNCCCN)c1 [CZ-76, N^1,N^1′-((5-butoxy-1,3-phenylene)bis(methylene))bis(N3-(3-aminopropyl)propane-1,3-diamine), hydrochloride salt]
MRSA
  MIC: < 50 µM
P. aeruginosa; read-out: MIC (P. aeruginosa), Table 5
  MIC: 50 to 100 µM

## NCCCNCCCNCc1cc(CNCCCNCCCN)cc(-c2ccc(C(=O)N3CCCCC3)cc2)c1 [CZ-88, (3′,5′-Bis(((3-((3-aminopropyl)amino)propyl)amino)methyl)-[1,1′-biphenyl]-4-yl) (piperidin-1-yl)methanone]
MRSA; Table 5
  MIC: < 50 µM
P. aeruginosa; [5]
  MIC: < 50 µM

## NCCCCCCCCCCCCNCc1cccc(CNCCCCCCCCCCCCN)c1 [CZ-21, N^1,N^1′-(1,3-phenylenebis(methylene))bis(dodecane-1,12-diamine), hydrochloride salt]
A. baumannii
  MIC: > 100 µM
MRSA
  MIC: < 50 µM

## CC(C)CNCCCNCCCNCc1cccc(-c2cc(CNCCCNCCCNCC(C)C)cc(CNCCCNCCCNCC(C)C)c2)c1 [CZ-99, N^1,N^1′,N^1″-([1,1′-biphenyl]-3,3′,5-triyltris(methylene))tris(N^3-(3-(isobutylamino)propyl)propane-1,3-diamine)]
MRSA; Table 5
  MIC: < 50 µM
L-929 cells (ATCC CCL-1); Table 11A, 25 μg/mL
  Results Pass/Fail: Pass (receives a passing score (Pass) if the reactivity grade is not greater than grade 2 or a mild reactivity)
L-929 cells (ATCC CCL-1); [1]
  Results Pass/Fail: Pass (receives a passing score (Pass) if the reactivity grade is not greater than grade 2 or a mild reactivity)
L-929 cells (ATCC CCL-1); [2]
  Results Pass/Fail: Pass (receives a passing score (Pass) if the reactivity grade is not greater than grade 2 or a mild reactivity)
L-929 cells (ATCC CCL-1); [3]
  Results Pass/Fail: Pass (receives a passing score (Pass) if the reactivity grade is not greater than grade 2 or a mild reactivity)
L-929 cells (ATCC CCL-1); [4]
  Results Pass/Fail: Pass (receives a passing score (Pass) if the reactivity grade is not greater than grade 2 or a mild reactivity)
P. aeruginosa; Table 5
  MIC (P. aeruginosa): ++ to +++
